Where two headings read alike, the source gives them in different places.
How the values were obtained:
[1] = target: T1, DAPK2 (Homo sapiens, UniProt Q9UIK4); conditions: cited from earlier work
T1 construct: purchased Reaction Biology Corp

[2] = target: T2, RIPK5 (Homo sapiens, UniProt Q6XUX3); conditions: cited from earlier work
T2 construct: purchased Reaction Biology Corp
T2 sequence (Q6XUX3 1-929): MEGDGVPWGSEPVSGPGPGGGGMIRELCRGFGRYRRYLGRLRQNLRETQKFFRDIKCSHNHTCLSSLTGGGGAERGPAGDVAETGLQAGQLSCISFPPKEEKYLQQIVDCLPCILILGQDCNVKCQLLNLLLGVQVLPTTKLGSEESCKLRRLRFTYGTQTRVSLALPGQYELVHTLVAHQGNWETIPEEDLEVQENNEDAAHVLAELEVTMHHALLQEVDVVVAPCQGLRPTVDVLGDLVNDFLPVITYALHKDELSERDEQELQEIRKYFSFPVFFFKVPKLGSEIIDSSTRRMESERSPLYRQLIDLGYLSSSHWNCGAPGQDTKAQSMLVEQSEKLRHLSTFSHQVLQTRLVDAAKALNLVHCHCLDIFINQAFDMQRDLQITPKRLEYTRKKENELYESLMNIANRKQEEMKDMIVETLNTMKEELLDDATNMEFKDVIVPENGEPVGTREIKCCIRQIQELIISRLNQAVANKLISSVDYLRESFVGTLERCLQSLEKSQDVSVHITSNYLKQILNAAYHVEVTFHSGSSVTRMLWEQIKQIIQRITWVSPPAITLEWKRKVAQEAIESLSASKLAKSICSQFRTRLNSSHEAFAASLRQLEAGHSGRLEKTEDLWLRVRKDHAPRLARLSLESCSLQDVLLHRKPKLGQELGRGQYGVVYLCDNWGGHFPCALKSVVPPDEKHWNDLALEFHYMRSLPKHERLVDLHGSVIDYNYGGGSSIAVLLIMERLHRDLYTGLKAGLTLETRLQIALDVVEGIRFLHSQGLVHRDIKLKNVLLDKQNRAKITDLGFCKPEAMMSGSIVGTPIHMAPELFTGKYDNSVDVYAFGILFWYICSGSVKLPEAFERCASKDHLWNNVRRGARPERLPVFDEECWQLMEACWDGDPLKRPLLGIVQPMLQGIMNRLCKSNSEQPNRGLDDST

[3] = target: T3, STK25/YSK1 (Homo sapiens, UniProt O00506); conditions: cited from earlier work
T3 construct: purchased Reaction Biology Corp

[4] = target: T4, CDK3/cyclin E (Homo sapiens, UniProt Q00526); experiment: Kinase panel assay (radiolabelled); assay type: biochemical; conditions: ATP 10 μM
T4 construct: purchased Reaction Biology Corp
T4 sequence (Q00526 whole entry): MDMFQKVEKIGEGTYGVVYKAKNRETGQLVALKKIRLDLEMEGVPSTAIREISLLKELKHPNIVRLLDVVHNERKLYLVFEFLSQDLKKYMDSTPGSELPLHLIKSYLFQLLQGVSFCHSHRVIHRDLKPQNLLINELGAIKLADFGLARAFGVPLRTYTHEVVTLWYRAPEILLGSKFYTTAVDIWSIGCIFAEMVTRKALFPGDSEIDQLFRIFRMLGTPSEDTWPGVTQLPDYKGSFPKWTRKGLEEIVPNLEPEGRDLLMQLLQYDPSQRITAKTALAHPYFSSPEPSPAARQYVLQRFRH
T4 sequence (P24864 whole entry partner): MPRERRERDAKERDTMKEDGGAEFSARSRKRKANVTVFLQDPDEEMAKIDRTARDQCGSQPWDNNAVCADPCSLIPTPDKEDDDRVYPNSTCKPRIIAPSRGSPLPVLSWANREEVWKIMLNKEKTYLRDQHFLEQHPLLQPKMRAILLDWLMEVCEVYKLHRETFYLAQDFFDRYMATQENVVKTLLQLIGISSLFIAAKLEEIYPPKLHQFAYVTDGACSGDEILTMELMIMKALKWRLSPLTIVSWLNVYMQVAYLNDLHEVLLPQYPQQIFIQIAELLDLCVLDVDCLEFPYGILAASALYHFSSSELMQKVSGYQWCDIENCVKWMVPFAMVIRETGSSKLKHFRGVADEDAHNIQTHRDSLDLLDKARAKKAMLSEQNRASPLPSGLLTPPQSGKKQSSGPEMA

[5] = target: T5, DAPK1 (Homo sapiens, UniProt P53355); experiment: Kinase panel assay (radiolabelled); assay type: biochemical; conditions: ATP 10 μM
T5 construct: purchased Reaction Biology Corp
T5 sequence (P53355 whole entry): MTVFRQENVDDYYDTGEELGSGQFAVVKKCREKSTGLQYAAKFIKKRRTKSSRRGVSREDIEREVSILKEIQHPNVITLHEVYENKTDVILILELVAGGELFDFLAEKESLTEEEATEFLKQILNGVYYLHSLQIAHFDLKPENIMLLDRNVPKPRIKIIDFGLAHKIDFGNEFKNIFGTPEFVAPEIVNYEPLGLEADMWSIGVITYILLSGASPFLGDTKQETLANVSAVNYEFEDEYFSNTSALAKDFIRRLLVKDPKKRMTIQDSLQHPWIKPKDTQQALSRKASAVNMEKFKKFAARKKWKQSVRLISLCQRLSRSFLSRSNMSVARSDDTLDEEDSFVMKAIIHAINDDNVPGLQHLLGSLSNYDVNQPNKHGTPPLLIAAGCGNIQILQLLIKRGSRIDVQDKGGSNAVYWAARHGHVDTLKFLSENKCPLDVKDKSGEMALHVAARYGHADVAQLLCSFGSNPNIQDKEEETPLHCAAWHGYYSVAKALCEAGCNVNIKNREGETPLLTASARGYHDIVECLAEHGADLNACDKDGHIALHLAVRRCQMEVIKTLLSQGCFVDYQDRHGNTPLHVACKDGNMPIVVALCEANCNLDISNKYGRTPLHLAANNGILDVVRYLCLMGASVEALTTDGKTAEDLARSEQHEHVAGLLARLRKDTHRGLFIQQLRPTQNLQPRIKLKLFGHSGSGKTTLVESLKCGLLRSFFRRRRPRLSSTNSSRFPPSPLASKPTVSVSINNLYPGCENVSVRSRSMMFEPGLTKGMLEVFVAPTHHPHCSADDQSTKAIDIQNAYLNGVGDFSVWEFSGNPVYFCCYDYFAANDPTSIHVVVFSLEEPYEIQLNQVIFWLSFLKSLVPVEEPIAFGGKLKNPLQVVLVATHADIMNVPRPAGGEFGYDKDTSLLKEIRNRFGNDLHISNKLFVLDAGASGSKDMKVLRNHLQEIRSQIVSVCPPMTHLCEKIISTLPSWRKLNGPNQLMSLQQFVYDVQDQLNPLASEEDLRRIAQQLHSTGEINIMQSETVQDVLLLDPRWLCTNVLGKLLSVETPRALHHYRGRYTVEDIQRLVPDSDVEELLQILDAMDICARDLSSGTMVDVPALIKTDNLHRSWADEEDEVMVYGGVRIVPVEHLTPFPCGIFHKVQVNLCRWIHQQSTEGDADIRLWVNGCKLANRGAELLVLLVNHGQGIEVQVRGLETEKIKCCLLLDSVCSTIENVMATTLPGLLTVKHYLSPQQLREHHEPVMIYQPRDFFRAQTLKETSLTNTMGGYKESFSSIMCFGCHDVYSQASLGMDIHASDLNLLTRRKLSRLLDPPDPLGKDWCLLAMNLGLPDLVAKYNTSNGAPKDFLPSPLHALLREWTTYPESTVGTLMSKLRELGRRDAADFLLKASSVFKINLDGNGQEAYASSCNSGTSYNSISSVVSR

[6] = target: T6, MST3/STK24 (Homo sapiens, UniProt Q9Y6E0); experiment: Kinase panel assay (radiolabelled); assay type: biochemical; conditions: ATP 10 μM
T6 construct: purchased Reaction Biology Corp
T6 sequence (Q9Y6E0 whole entry): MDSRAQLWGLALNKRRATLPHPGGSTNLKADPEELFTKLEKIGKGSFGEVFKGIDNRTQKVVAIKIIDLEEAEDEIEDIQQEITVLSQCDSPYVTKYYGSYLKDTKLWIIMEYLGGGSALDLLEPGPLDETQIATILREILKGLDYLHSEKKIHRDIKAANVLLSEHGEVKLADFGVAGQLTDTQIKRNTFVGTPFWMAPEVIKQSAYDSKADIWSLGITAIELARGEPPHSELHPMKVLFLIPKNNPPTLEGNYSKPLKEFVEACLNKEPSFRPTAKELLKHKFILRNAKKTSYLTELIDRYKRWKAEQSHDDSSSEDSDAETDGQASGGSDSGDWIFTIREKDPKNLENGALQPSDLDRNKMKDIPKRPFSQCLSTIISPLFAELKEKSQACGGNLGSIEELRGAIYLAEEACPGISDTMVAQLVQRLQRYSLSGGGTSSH

[7] = target: T7, TRKA (G667C) (Homo sapiens, UniProt P04629, G667C); experiment: Kinase panel assay (radiolabelled); assay type: biochemical; conditions: 30 μM compound, ATP 10 μM, duplicates Data 1/Data 2
T7 construct: purchased Reaction Biology Corp

[8] = target: T8, TRKB (Homo sapiens, UniProt Q16620); experiment: Kinase panel assay (radiolabelled); assay type: biochemical; conditions: ATP 10 μM
T8 construct: purchased Reaction Biology Corp
T8 sequence (Q16620 32-822): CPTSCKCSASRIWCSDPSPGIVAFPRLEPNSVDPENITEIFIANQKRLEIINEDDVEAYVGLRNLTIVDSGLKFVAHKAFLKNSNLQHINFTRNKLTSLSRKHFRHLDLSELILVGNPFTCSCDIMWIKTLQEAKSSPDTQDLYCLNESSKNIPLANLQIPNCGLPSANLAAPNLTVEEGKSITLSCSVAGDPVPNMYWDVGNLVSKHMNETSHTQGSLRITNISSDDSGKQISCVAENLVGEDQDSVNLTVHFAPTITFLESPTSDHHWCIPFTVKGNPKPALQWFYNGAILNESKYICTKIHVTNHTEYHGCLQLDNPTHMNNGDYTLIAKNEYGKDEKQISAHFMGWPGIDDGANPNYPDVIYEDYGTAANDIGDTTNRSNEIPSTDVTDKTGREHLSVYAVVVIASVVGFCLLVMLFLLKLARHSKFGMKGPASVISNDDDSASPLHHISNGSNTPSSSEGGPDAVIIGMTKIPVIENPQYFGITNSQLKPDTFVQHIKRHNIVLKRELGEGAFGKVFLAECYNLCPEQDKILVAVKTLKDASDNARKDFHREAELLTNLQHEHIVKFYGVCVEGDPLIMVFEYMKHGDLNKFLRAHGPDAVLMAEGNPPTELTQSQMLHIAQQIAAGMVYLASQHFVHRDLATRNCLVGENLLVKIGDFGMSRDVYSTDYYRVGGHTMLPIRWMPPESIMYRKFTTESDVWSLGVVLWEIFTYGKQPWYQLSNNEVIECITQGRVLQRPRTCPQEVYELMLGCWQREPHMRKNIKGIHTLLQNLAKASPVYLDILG

[9] = target: T9, TRKC (G623E) (Homo sapiens, UniProt Q16288, G623E); experiment: Kinase panel assay (radiolabelled); assay type: biochemical; conditions: 30 μM compound, ATP 10 μM, duplicates Data 1/Data 2
T9 construct: purchased Reaction Biology Corp
T9 sequence (Q16288 32-839 G623E): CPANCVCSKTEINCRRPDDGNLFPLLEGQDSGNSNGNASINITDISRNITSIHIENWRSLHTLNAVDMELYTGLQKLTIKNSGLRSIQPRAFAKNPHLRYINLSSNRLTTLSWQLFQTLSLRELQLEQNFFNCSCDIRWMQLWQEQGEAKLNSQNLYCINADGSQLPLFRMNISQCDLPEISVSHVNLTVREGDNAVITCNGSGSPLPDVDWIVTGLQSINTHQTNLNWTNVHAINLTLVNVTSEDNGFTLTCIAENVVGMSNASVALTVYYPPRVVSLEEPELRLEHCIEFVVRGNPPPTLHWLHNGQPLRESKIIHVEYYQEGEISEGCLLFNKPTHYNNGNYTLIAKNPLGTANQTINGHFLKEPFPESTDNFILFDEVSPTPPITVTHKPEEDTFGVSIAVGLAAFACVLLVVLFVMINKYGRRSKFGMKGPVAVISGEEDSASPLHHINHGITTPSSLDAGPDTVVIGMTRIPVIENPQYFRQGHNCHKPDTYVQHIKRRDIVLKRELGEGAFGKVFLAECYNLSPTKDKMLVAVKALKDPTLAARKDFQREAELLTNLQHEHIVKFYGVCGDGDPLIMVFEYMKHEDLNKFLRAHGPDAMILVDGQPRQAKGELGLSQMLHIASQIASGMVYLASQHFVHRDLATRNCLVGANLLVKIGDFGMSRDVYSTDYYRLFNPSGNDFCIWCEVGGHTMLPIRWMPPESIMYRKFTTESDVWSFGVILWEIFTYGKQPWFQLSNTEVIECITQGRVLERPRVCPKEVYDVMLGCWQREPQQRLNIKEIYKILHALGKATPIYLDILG

[10] = target: T10, TRKC (G623R) (Homo sapiens, UniProt Q16288, G623R); experiment: Kinase panel assay (radiolabelled); assay type: biochemical; conditions: 30 μM compound, ATP 10 μM, duplicates Data 1/Data 2
T10 construct: purchased Reaction Biology Corp
T10 sequence (Q16288 32-839 G623R): as the sequence (Q16288 32-839 G623E) above, with E592R counted along it

[11] = target: T11, TRKC (G623R/L686M) (Homo sapiens, UniProt Q16288, G623R/L686M); experiment: Kinase panel assay (radiolabelled); assay type: biochemical; conditions: 30 μM compound, ATP 10 μM, duplicates Data 1/Data 2
T11 construct: purchased Reaction Biology Corp
T11 sequence (Q16288 32-839 G623R/L686M): as the sequence (Q16288 32-839 G623E) above, with E592R, L655M counted along it

[12] = target: T12, TRKC (L686M) (Homo sapiens, UniProt Q16288, L686M); experiment: Kinase panel assay (radiolabelled); assay type: biochemical; conditions: 30 μM compound, ATP 10 μM, duplicates Data 1/Data 2
T12 construct: purchased Reaction Biology Corp
T12 sequence (Q16288 32-839 L686M): as the sequence (Q16288 32-839 G623E) above, with E592G, L655M counted along it

[13] = target: T13, PI4Kb (Homo sapiens, UniProt Q9UBF8); experiment: Kinase panel assay (lipid kinase); assay type: biochemical; conditions: 30 μM compound, ATP 10 μM, duplicates Data 1/Data 2
T13 construct: purchased Reaction Biology Corp

[14] = target: T14, PI3K (p110a/p65a) (Homo sapiens, UniProt P42336); experiment: Kinase panel assay (lipid kinase); assay type: biochemical; conditions: 30 μM compound, ATP 10 μM, duplicates Data 1/Data 2
T14 construct: purchased Reaction Biology Corp

[15] = tested on: iNOS; experiment: Western blot of iNOS in LPS-induced BV-2 cells; assay type: cell-based, murine
Experimental: Western blot analysis was performed to see the protein expression of the iNOS and COX-2 in the BV2 cells. BV2 cells were seeded in a 6 well plate at the density of 6 × 10^5 cells/well overnight and cells were treated as mentioned earlier in the cell treatment section and this time treatment was performed for 6 h only. After 6 h, cells were harvested and lysed with lysis buffer containing (RIPA, protease inhibitor & phosphatase inhibitor), protein estimation was performed using biorad assay and the 30 µg of total protein was separated by 8% SDS-PAGE gel electrophoresis, transferred to nitrocellulose membranes, and incubated with primary antibodies against tubulin, iNOS, COX-2, and α-tubulin. […] membranes were incubated with horseradish peroxidase-conjugated secondary antibodies, and protein bands were visualized using ECL Western Blotting Detection Reagents (Amersham Pharmacia Biotech). Quantitative analysis of the protein bands was quantified using Image Master 2D Elite software (version 3.1, Amersham Pharmacia Biotech).

[16] = tested on: IL-6; experiment: Secreted IL-6 ELISA in LPS-induced BV-2 cells; assay type: cell-based, murine
Experimental: To evaluate the secreted level of Prostaglandin E2 (PGE2), Tumor necrosis factor (TNF-α), Interleukin (IL-6), Interleukin (IL-1β), BV2 cells were seeded in a 6 well plate at the density of 1.5 × 10^6 cells/well in DMEM and incubated for 24 h. Seeded cells sere pretreated and, activated with LPS for next 24 h. conditioned medium from treated cells were collected and stored at -80 degree for longer period of time. The amount of TNF-α, IL-1β, PGE2,and IL-6 were evaluated using the competitive enzyme immunoassay kit. PGE2 kit were obtained from (Cayman Chemical, Ann Arbor, MI, USA) and TNF-α, IL-1β, and IL-6 were measured using ELISA development kits (R&D Systems, Minneapolis, MN, USA). All the protocol was exactly followed as written in the manual.

[17] = 30 μM compound, duplicates Data 1/Data 2
[18] = 30 μM compound, duplicates Data 1/Data 2, read-out: % Enzyme Activity (relative to DMSO controls)
[19] = 30 μM, average ± SD, read-out: % Residual Activity at 30 μM
[20] = read-out: % Enzyme Activity (relative to DMSO controls)

T1 sequence (Q9UIK4 whole entry): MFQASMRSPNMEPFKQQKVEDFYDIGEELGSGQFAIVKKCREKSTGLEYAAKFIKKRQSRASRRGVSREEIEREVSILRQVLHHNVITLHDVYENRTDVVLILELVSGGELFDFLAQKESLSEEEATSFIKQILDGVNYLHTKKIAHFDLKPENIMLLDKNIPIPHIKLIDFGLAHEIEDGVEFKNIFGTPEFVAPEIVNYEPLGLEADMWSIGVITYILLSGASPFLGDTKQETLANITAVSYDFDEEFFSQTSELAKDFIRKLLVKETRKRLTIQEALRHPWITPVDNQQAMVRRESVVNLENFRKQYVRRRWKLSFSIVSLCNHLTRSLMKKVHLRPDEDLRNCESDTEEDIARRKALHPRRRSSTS

O=C1C=CC2(C=C1)OCC(Cc1cc(C(F)(F)F)cc(C(F)(F)F)c1)C(=O)N2c1ccccc1 (racemic) [1c]
% Residual Activity at 30 μM [1]: 120.1 ± 0.6%
% Residual Activity at 30 μM [2]: 59.3 ± 1.0%
% Residual Activity at 30 μM [3]: 66.9 ± 0.1%

O=C1C=CC2(C=C1)OCC(Cc1cn(-c3cccc(Cl)c3)nn1)C(=O)N2c1ccccc1 (centres unmarked) [2d, 3-((1-(3-Chlorophenyl)-1H-1,2,3-triazol-4-yl)methyl)-5-phenyl-1-oxa-5-azaspiro[5.5]undeca-7,10-diene-4,9-dione]
% Enzyme Activity (relative to DMSO controls) [4, 17]: 59.02%
remaining activity at 30 µM [4, 18]: 61.6%
remaining activity at 30 µM [4, 19]: 60.3 ± 1.9%
% Enzyme Activity (relative to DMSO controls) [5, 17]: 73.41%
remaining activity at 30 µM [5, 18]: 75.8%
remaining activity at 30 µM [5, 19]: 74.6 ± 1.7%
% Enzyme Activity (relative to DMSO controls) [6, 17]: 89.43%
remaining activity at 30 µM [6, 18]: 94.2%
remaining activity at 30 µM [6, 19]: 91.8 ± 3.4%
% Enzyme Activity (relative to DMSO controls) [7]: 101.95%
remaining activity at 30 µM [7, 20]: 103%
% Enzyme Activity (relative to DMSO controls) [8, 17]: 101.29%
remaining activity at 30 µM [8, 18]: 103%
remaining activity at 30 µM [8, 19]: 102 ± 1.3%
% Enzyme Activity (relative to DMSO controls) [9]: 114.78%
remaining activity at 30 µM [9, 20]: 118%
% Enzyme Activity (relative to DMSO controls) [10]: 90.32%
remaining activity at 30 µM [10, 20]: 92.1%
% Enzyme Activity (relative to DMSO controls) [11]: 95.31%
remaining activity at 30 µM [11, 20]: 96%
% Enzyme Activity (relative to DMSO controls) [12]: 106.77%
remaining activity at 30 µM [12, 20]: 107%
% Enzyme Activity (relative to DMSO controls) [13]: 81.00%
remaining activity at 30 µM [13, 20]: 81.6%
% Enzyme Activity (relative to DMSO controls) [14]: 82.25%
remaining activity at 30 µM [14, 20]: 83.8%
iNOS expression level ([15]; 0.01 to 1 uM, LPS-induced BV-2 cells): downregulated iNOS and COX-2 more efficiently than compound 2a
potency relative to L-NMMA ([15]; regulation of iNOS and COX-2, LPS-induced BV-2 cells): 20 fold
IL-6 level [16]: concentration-dependent manner
